Experimental data: US20250241901A1, “ACTIVATION OF MNRR1 / CHCHD2 AS A THERAPEUTIC TARGET FOR MITOCHONDRIA ASSOCIATED DISORDERS” (Wayne State University, priority 2024, published 2025)

What was measured:
[1] = system: MNRR1-promoter driven luciferase reporter; assay: High throughput screen with MNRR1-promoter driven luciferase reporter cell lines; format: cell-based, human; settings: list of 2400 FDA-approved drugs, small molecules and natural products
Description: Cell lines, culture, and Z′ determination: Stable cell line generation: HEK293 or MDA-MB-468 cells were transfected with pGL4-MNNR1-luciferase, selected with 0.5 μg/mL (for 293) or 1 μg/mL (for 468) puromycin for 2 weeks, and subcloned by limiting dilution. MDA-MB-468-MNRR1-luc and HEK293-MNRR1-luc cells from multiple clones (5000-7500 cells) were plated in 100 μL of complete medium overnight and treated with 10 μM of each compound from the library for 24 h. The medium was aspirated from each well to a volume of 25 μL, and 25 μL Bright Glo (Promega, Madison, WI) luciferase detection reagent was added to each well 10 min prior to luminescent determination with a FlexStation 3 Multimode Microplate Reader (Molecular Devices, San Jose, CA). […] The Z′ factor is a value used to identify strong candidates and can be calculated using a previously described method. […]
MicroSource Spectrum Collection: Despite the low Z′ values for MDA-MB-468-MNRR1-luc and HEK293-MNRR1-luc, pilot screens were performed with both using the MicroSource Spectrum Collection (Gaylordsville, CT). […] For HTS, cells were plated, treated, and measured for luciferase expression as described for clone identification; all HTS compounds were added to a final concentration of 10 μM and MNRR1-luciferase expression was measured after 24 h. […]

[2] = system: MNRR1; assay: MNRR1 transcript and protein levels in decidua and placenta of LPS-injected dams; format: in vivo, mouse
Description: FIGS. 2A-2F. Nitazoxanide prevents preterm delivery and improves neonatal mortality in vivo. (FIG. 2A) Schematic illustration depicting the administration of nitazoxanide (marketed under the commercial name Alinia) and LPS in the murine model of preterm birth. (FIG. 2B) Gestational length of mice was obtained using video-monitoring until delivery (n=6-8 animals). (FIG. 2C) Neonatal mortality was determined by calculating the number of dead pups over total litter size (n=6-8 animals). […] No pups from LPS-injected dams survived beyond week 0 of birth. (FIG. 2E) MNRR1 transcript levels were measured in mouse decidual tissue (17.5 dpc). Actin was used as a housekeeping gene to normalize expression (n=4 animals for all except PBS+N, where n=3). (FIG. 2F) Equal amounts of whole placental lysates were separated on an SDS-PAGE gel and probed for MNRR1 levels. Actin was used as a loading control. Gel is representative of data obtained from 2 animals. […]
Real-time polymerase chain reaction: Total cellular RNA was extracted from mouse placental tissues or HTR8 cells by using a RNeasy Plus Mini Kit (Qiagen, Germantown, MD, USA), according to the manufacturer's instructions. […] Transcript levels were measured by real-time PCR by using SYBR green on an ABI 7500 system. […]

[3] = in cells; cited from earlier work
[4] = single dose of 4 gm, adult humans; cited from earlier work
[5] = system: MELAS patient fibroblasts; assay: Heteroplasmy in MELAS patient fibroblasts; format: cell-based, human; settings: low heteroplasmy levels (<50%)
Description: Restriction Enzyme Digestion: DNA was analyzed for the MELAS mutation as described previously. The A→G mutation creates a new Haelll site at position 3243 that can be amplified by PCR using primers corresponding to the light-strand positions 3116 to 3134 and to the heavy-strand positions 3353 to 3333. Equal amounts of the resulting products were digested with the restriction enzyme Haelll (New England Biolabs) and electrophoresed on a 2.5% agarose gel.

| Compound | outcome of screen for MNRR1 activators [1] | MNRR1 transcript level in the decidua ([2]; 17.5 dpc) | MNRR1 protein level in the placenta ([2]; whole placental lysates) | fraction metabolized to tizoxanide [3] [%] | adverse effects [4] | shift of heteroplasmy [5] |
| --- | --- | --- | --- | --- | --- | --- |
| CC(=O)Oc1ccccc1C(=O)Nc1ncc([N+](=O)[O-])s1 [nitazoxanide, Nitazoxanide] | identified as an MNRR1 activator | restored the LPS-induced reduction of MNRR1 | restored the LPS-induced reduction of MNRR1 | > 97 | did not result in any adverse effects | – |
| O=C(Nc1ncc([N+](=O)[O-])s1)c1ccccc1O [tizoxanide, Tizoxanide] | – | – | – | – | – | do not show a shift of heteroplasmy |
